# Assay results: patent US10273237B2, “Imidazopyridazine compounds useful as modulators of IL-12, IL-23 and/or IFN-α responses” (BRISTOL-MYERS SQUIBB COMPANY, priority 2013, dated 2019)
# Where two headings read alike, the source gives them in different places.
# How the values were obtained:
# [1] = test system: IFNα-stimulated Kit225 T cells with STAT-dependent luciferase reporter; assay: Kit225 T cell assay, STAT-dependent luciferase reporter, IFNα stimulated; assay type: cell-based, human; details: 5-6 hours, read-out: IFNa Kit225 Reporter, LE (IC50)
# Method: (§1) Kit225 T cells with a stably-integrated STAT-dependent luciferase reporter were plated in RPMI (GIBCO) containing 10% heat-inactivated FBS (GIBCO) and 100 U/mL PenStrep (GIBCO). The cells were then stimulated with either 20 ng/mL human recombinant IL-23 or 200 U/mL human recombinant IFNα (PBL InterferonSource) for 5-6 hours. Luciferase expression was measured using the STEADY-GLO® Luciferase Assay System (PROMEGA®) according to the manufacturer's instructions.
# [2] = test system: IL-23-stimulated Kit225 T cells with STAT-dependent luciferase reporter; assay: Kit225 T cell assay, STAT-dependent luciferase reporter, IL-23 stimulated; assay type: cell-based, human; details: read-out: IL-23 Kit225 Reporter, LE (IC50)
# Method: as §1
# [3] = Homo sapiens, KIT225, 200 U/mL human recombinant IFNα
# [4] = Homo sapiens, KIT225, 20 ng/mL human recombinant IL-23, 5-6 hours
# [5] = 200 U/mL human recombinant IFNα
# [6] = 20 ng/mL human recombinant IL-23, 5-6 hours
Structure (SMILES),"IC50 [1, 3] [µM]","IC50 [2, 4] [µM]","IC50 [1, 5] [µM]","IC50 [2, 6] [µM]"
CNc1cc(Nc2cccn(-c3ccc(C(F)F)cc3)c2=O)nn2c(C(=O)NCC(C)(CO)CO)cnc12 [Example 19],–,–,0.4,0.33
CNc1cc(Nc2cccn(-c3ncccc3F)c2=O)nn2c(C(=O)N[C@@H]3C[C@@H]3F)cnc12 [Example 42],–,–,0.02,0.05
CNc1cc(Nc2ccnn(-c3cccc(C#N)c3)c2=O)nn2c(C(=O)N[C@@H]3C[C@@H]3F)cnc12 [Example 196],–,–,0.04,0.16
CNc1cc(Nc2cc(F)cn(C)c2=O)nn2c(C(=O)NC3(C#N)CC3)cnc12 [Example 11],–,–,0.26,0.31
CNc1cc(Nc2cccn(-c3ccccc3)c2=O)nn2c(C(=O)NCc3nccs3)cnc12 [Example 182],–,–,0.27,0.22
CNc1cc(Nc2cccn(-c3ccccn3)c2=O)nn2c(C(=O)N[C@@H]3CCOC3)cnc12 [Example 62],–,–,0.27,0.64
CNc1cc(Nc2cccn(-c3ccc(F)cn3)c2=O)nn2c(C(=O)NC3CC3)cnc12 [Example 36],–,–,0.1,0.1
CNc1cc(Nc2cccn(-c3cccc(F)n3)c2=O)nn2c(C(=O)NCc3nccs3)cnc12 [Example 192],–,–,0.18,0.23
CNc1cc(Nc2cc(F)cn(-c3ccc(C)nn3)c2=O)nn2c(C(=O)NC3CC3)cnc12 [Example 94],–,–,0.05,0.04
CNc1cc(Nc2cccn(-c3ccc(C)nn3)c2=O)nn2c(C(=O)NC3CCCC3)cnc12 [Example 95],–,–,0.15,0.16
CNc1cc(Nc2cccn(-c3cccc(C(C)(C)O)n3)c2=O)nn2c(C(=O)N[C@@H]3C[C@@H]3F)cnc12 [Example 82],–,–,0.04,0.04
CNc1cc(Nc2cccn(-c3ccn(C4CC4)n3)c2=O)nn2c(C(=O)NC3CCC3)cnc12 [Example 166],–,–,0.05,0.29
CNc1cc(Nc2cc(C)cn(-c3ccc(C)nn3)c2=O)nn2c(C(=O)NC3CC3)cnc12 [Example 91],–,–,0.15,0.23
CNc1cc(Nc2nccn(C)c2=O)nn2c(C(=O)NC3CCC3)cnc12 [Example 84],–,–,4.27,3.86
CNc1cc(Nc2cccn(-c3ccc(C)nn3)c2=O)nn2c(C(=O)NC(C)C)cnc12 [Example 97],–,–,0.11,0.19
CNc1cc(Nc2cccn(-c3ccc(F)nc3)c2=O)nn2c(C(=O)N[C@@H]3C[C@@H]3F)cnc12 [Example 40],–,–,0.05,0.16
CNc1cc(Nc2cccn(-c3ccc(C#N)cc3)c2=O)nn2c(C(=O)NC3(C#N)CC3)cnc12 [Example 13],–,–,0.23,0.15
CNc1cc(Nc2cccn(-c3ccc(C(F)F)cc3)c2=O)nn2c(C(=O)NC3(C#N)CC3)cnc12 [Example 20],–,–,0.08,0.13

Structure (SMILES),"IC50 [1, 3] [µM]","IC50 [2, 4] [µM]","IC50 [1, 5] [µM]","IC50 [2, 6] [µM]"
CNc1cc(Nc2cccn(-c3ccccc3)c2=O)nn2c(C(=O)NC3(C#N)CC3)cnc12 [Example 120],–,–,0.07,0.2
CNc1cc(Nc2cccn(-c3ccc(F)cn3)c2=O)nn2c(C(=O)NCC(C)(C)CO)cnc12 [Example 33],–,–,0.26,0.28
CNc1cc(Nc2cccn(-c3ccccn3)c2=O)nn2c(C(=O)NC3CCC3)cnc12 [Example 34],–,–,0.05,0.06
CCC(C)NC(=O)c1cnc2c(NC)cc(Nc3cccn(-c4cccnn4)c3=O)nn12 (stereo not shown) [Example 105],–,–,0.09,0.32
CNc1cc(Nc2cccn(-c3ccncc3)c2=O)nn2c(C(=O)NC3CC3)cnc12 [Example 128],–,–,0.24,0.44
CNc1cc(Nc2cccn(-c3ccn(C)n3)c2=O)nn2c(C(=O)N[C@@H]3C[C@@H]3F)cnc12 [Example 169],–,–,0.04,0.08
CNc1cc(Nc2cc(Cl)cn(C)c2=O)nn2c(C(=O)NC3(C#N)CCC3)cnc12 [Example 43],–,–,0.11,0.59
CNc1cc(Nc2cc(F)cn(C)c2=O)nn2c(C(=O)NCC3(CO)CC3)cnc12 [Example 30],–,–,0.2,0.39
CNc1cc(Nc2cccn(C)c2=O)nn2c(C(=O)NC3CCC3)cnc12 [Example 68],–,–,0.01,0.03
CNc1cc(Nc2cccn(-c3cccc(F)c3)c2=O)nn2c(C(=O)NC3(C#N)CC3)cnc12 [Example 53],–,–,0.08,0.17
CNc1cc(Nc2cncn(-c3ccc(C)nn3)c2=O)nn2c(C(=O)NC3CCC3)cnc12 [Example 78],–,–,0.18,0.23
"CNc1cc(Nc2cccn(-c3nccc(C(F)(F)F)n3)c2=O)nn2c(C(=O)NC3CCC3)cnc12 [Example 5, N-Cyclobutyl-8-(methylamino)-6-((2-oxo-1-(4-(trifluoromethyl)pyrimidin-2-yl)-1,2-dihydropyridin-3-yl)amino)imidazo[1,2-b]pyridazine-3-carboxamide]",0.15,0.15,–,–
CNc1cc(Nc2cc(F)cn(C3CC3)c2=O)nn2c(C(=O)NC3(C#N)CC3)cnc12 [Example 51],–,–,0.22,0.16
CNc1cc(Nc2cccn(C)c2=O)nn2c(C(=O)N[C@@H]3CCOC3)cnc12 [Example 57],–,–,0.52,0.3
CNc1cc(Nc2cccn(-c3cccc(C)n3)c2=O)nn2c(C(=O)N[C@@H]3C[C@@H]3F)cnc12 [Example 49],–,–,0.05,0.02
CNc1cc(Nc2cccn(-c3ccnc(F)c3)c2=O)nn2c(C(=O)NC3CC3)cnc12 [Example 134],–,–,0.14,0.22
CNc1cc(Nc2cccn(-c3ncccc3F)c2=O)nn2c(C(=O)NC3CC3)cnc12 [Example 41],–,–,0.06,0.08

# Next, values leading:
"IC50 [1, 3] [µM]","IC50 [2, 4] [µM]","IC50 [1, 5] [µM]","IC50 [2, 6] [µM]",Structure (SMILES)
0.23,0.28,–,–,CNc1cc(Nc2cccn(C3CCN(C(=O)C4CC4(F)F)CC3)c2=O)nn2c(C(=O)NC3CC3)cnc12 (stereo not shown) [Example 248]
–,–,0.28,0.17,CNc1cc(Nc2cccn(C3CCOC3)c2=O)nn2c(C(=O)NC3CC3)cnc12 (stereo not shown) [Example 220]
0.09,0.14,–,–,O=C(N[C@H]1C[C@@H]1F)c1cnc2c3c(c(Nc4cccn(-c5ccccn5)c4=O)nn12)OCCN3 [Example 241]
0.02,0.05,–,–,"CCn1cc(Cl)cc(Nc2cc(NC)c3ncc(C(=O)NC4CC4)n3n2)c1=O [Example 243, 6-((5-chloro-1-ethyl-2-oxo-1,2-dihydropyridin-3-yl)amino)-N-cyclopropyl-8-(methylamino)imidazo[1,2-b]pyridazine-3-carboxamide]"
0.06,0.04,–,–,CNc1cc(Nc2cccn(-c3ccc(C(=O)N4CCCC4)cn3)c2=O)nn2c(C(=O)N[C@@H]3C[C@@H]3F)cnc12 [compound 265]
–,–,0.37,0.62,CNc1cc(Nc2cccn(C3CCC(O)CC3)c2=O)nn2c(C(=O)NC3CC3)cnc12 (stereo not shown) [Example 227]
–,–,0.13,0.19,CNc1cc(Nc2cccn(C(C)(C)C)c2=O)nn2c(C(=O)NC3CC3)cnc12 [Example 218]
0.19,0.45,–,–,"CNc1cc(Nc2cccn(-c3ccc(C(C)(C)O)cn3)c2=O)nn2c(C(=O)NC3CC3)cnc12 [Example 252, N-cyclopropyl-6-((5′-(2-hydroxypropan-2-yl)-2-oxo-2H-[1,2′-bipyridin]-3-yl)amino)-8-(methylamino)imidazo[1,2-b]pyridazine-3-carboxamide]"
–,–,2.48,0.11,CNc1cc(Nc2cccn(C)c2=O)nn2c(C(=O)Nc3ccccc3)cnc12 [Example 212]
0.39,0.1,–,–,CNc1cc(Nc2cccn(C3CCN(CC(F)F)CC3)c2=O)nn2c(C(=O)NC3CC3)cnc12 [Example 250]
0.02,0.01,–,–,CNc1cc(Nc2cccn(-c3ccc(OC)nn3)c2=O)nn2c(C(=O)N[C@@H]3C[C@@H]3F)cnc12 [compound 261]
0.59,1.22,–,–,CNc1cc(Nc2cccn(-c3cncc(C#N)n3)c2=O)nn2c(C(=O)NCC(C)(C)CO)cnc12 [compound 258]
0.01,0.01,–,–,CCOc1ccc(-n2cccc(Nc3cc(NC)c4ncc(C(=O)N[C@@H]5C[C@@H]5F)n4n3)c2=O)nn1 [compound 260]
–,–,0.47,0.68,CNc1cc(Nc2cccn(C3CCC(N4CCOCC4)CC3)c2=O)nn2c(C(=O)NC3CC3)cnc12 (stereo not shown) [Example 224]
0.45,0.18,–,–,CNc1cc(Nc2cccn(-c3ccc(CO)cn3)c2=O)nn2c(C(=O)NC3CC3)cnc12 [compound 253]
–,–,0.44,0.9,CNc1cc(Nc2cccn(C(C)C)c2=O)nn2c(C(=O)NC3(C#N)CC3)cnc12 [Example 216]
0.21,0.06,–,–,O=C(NC1CC1)c1cnc2c3c(c(Nc4cccn(-c5ccccn5)c4=O)nn12)OCCN3 [Example 240]
0.11,0.12,–,–,CNc1cc(Nc2cccn(-c3ccc(C(=O)N(C)C)cc3)c2=O)nn2c(C(=O)N[C@@H]3C[C@@H]3F)cnc12 [compound 266]
–,–,0.2,0.19,CNc1cc(Nc2cccn(-c3cnn(C)c3)c2=O)nn2c(C(=O)NC3CC3)cnc12 [Example 203]
0.12,0.29,–,–,CCCCn1cc(Cl)cc(Nc2cc(NC)c3ncc(C(=O)NC4CC4)n3n2)c1=O [Example 244]
0.29,0.36,–,–,CNc1cc(Nc2cccn(-c3ccc(C(=O)N(C)C)cc3)c2=O)nn2c(C(=O)NCC(C)(C)CO)cnc12 [compound 267]
